# Measurements reported in paper PMC7997579, “Synthetic Lethality in Pancreatic Cancer: Discovery of a New RAD51-BRCA2 Small Molecule Disruptor That Inhibits Homologous Recombination and Synergizes with Olaparib” (Journal of Medicinal Chemistry, 2020).
# How the values were obtained:
# [1] = tested on: BxPC-3 cells; assay: Immunofluorescence of nuclear γ-H2AX foci (DNA damage); type: cell-based, human; details: BxPC-3, 48 h, 20 μM 35d + 10 μM olaparib vs olaparib alone
# Protocol: (§1) To evaluate DNA damage through γH2AX nuclear foci, BXPC3 and Capan1 cells were seeded on glass coverslips in 6-well tissue culture plate (2 × 10^5 cells/well) and allowed to adhere overnight. After 48 h treatment with olaparib (10 μM) or 35d (20 μM) given alone or in combination, cultures growing on coverslips were fixed and treated as described above. For this experiment, the used antibodies were a rabbit polyclonal anti-γH2AX (Abcam, 1:1000 in 5% BSA/PBS) and a secondary anti-rabbit rhodamine-labeled (Novus Biologicals, 1:1000 in 1% BSA/PBS). For both experiments, images were acquired using a Nikon fluorescent microscope equipped with filters for FITC, TRITC, and DAPI. The percentage of cells bearing nuclear foci was estimated by two independent observers, by analyzing 100–250 cells for each treatment sample.
# [2] = tested on: Capan-1 cells; assay: as above; type: cell-based, human; details: Capan-1, 48 h, 20 μM 35d coadministered with 10 μM olaparib vs olaparib alone
# Protocol: as §1
smiles,measurement,setting,value
"CCC(=O)N1N=C(c2c(-c3ccccc3)c3cc(Cl)ccc3[nH]c2=O)CC1c1ccc(OC)cc1 (centres unmarked) [Compound 35d, 6-Chloro-3-(5-(4-methoxyphenyl)-1-propionyl-4,5-dihydro-1H-pyrazol-3-yl)-4-phenylquinolin-2(1H)-one]",γ-H2AX labeling in nuclei,[1],increased
same,γ-H2AX labeling in nuclei,[2],not further enhanced
